According to patent publication US20230235374A1, “High Throughput Assays for Detecting Translation Readthrough Inducers” (The Trustees of the University of Pennsylvania, priority 2021, published 2023):

Experiments:
[1] = molecular target: T1, eRF1.eRF3.GDPNP ternary complex (Saccharomyces cerevisiae, UniProt P12385); assay: [3H]-AzAt photoaffinity labeling of eRF1 within ternary complex; assay type: binding
T1 construct: made in house; host or cells: E. coli BL21(DE3) CodonPlus
Method: (§1) Photoaffinity labeling with [^3H]-AzAt. Samples in Buffer 4, typically 20 μL, were incubated in the dark (20 min for Stop-POST5 and 80S-IRES complexes, 2 min for release factors) with various concentrations of [^3H]-AzAt at 37° C., transferred to a UV-transparent cuvette which was covered with parafilm to prevent evaporation, and irradiated in a Rayonet photochemical reactor equipped with 300 nm UV lamps for 5 min at room temperature. This was followed by quenching with 2 mM DTT at 37° C. for 5 min under ambient light. The irradiation time gave complete photolysis of the phenyl azide moiety in AzAt. Photolysis was also complete at 5 min in the presence of 1 mM ataluren, ruling out internal filtering effects.
(§2) Photoaffinity labeling of release factors. Solutions containing eRF1 (10 μM), eRF3 (20 μM) and 1 mM GMPPMP were pre-incubated at 37° C. for 2 min to form the ternary complex prior to photolabeling with [^3H]-AzAt. After quenching, reaction mixtures were loaded onto a 4-15% mini protean SDS-PAGE gel for protein separation and isolation. Gel slices containing eRF1 or eRF3, as shown by Coomassie Blue R250 staining, were crushed and the radioactivity was extracted in extraction buffer (50 mM Tris-HCl, 150 mM NaCl, and 0.1 mM EDTA; pH 7.5) by vigorously shaking at 70° C. for 30 min. The data fitting was performed using the software Prism. Labeling results of eRF1 alone and within the eRF1.eRF3.GDPNP complex were fit with a one-site binding model and a two-site binding model, respectively.

eRF1 = molecular target: T2, eRF1 (Saccharomyces cerevisiae, UniProt P12385); assay: [3H]-AzAt photoaffinity labeling of isolated eRF1; assay type: binding
T2 construct: made in house; host or cells: E. coli BL21(DE3) CodonPlus
T2 sequence (P12385 whole entry): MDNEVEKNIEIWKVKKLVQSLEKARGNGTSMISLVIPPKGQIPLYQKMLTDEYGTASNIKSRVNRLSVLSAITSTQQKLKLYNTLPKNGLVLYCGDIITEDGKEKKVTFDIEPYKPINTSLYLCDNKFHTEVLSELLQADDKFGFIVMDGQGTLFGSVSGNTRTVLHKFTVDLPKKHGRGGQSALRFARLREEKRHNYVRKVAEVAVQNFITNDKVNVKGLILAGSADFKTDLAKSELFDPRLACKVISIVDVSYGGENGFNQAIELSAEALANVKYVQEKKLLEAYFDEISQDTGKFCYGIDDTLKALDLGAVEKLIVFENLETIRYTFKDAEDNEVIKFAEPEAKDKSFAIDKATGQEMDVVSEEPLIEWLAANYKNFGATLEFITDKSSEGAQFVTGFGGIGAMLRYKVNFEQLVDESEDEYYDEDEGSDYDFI
Method: as §1, §2

[2] = tested on: rRNA fragments I-IV of Stop-POST5; assay: RNaseH fragment assay, Stop-POST5; assay type: binding, shrimp (Artemia salina)
Method: (§3) RNaseH Fragment Assay. Total RNA was prepared from the ^3H-AzAt photoaffinity labeled ribosome by phenol-chloroform extraction. RNA: DNA duplexes were formed by incubating total RNA (0.2 μM) with an oligonucleotide pair (1 μM of each, sequences shown Table 1), flanking a specific RNA region, in 22.8 μL of water at 95° C. for 2 min, followed by annealing at 50° C. for 30 s and quenching on ice. Six units (1.2 μL) of RNase H (NEB) and 6 μl of 5×RNase H Reaction Buffer were next added to the RNA: DNA duplex and incubated at 37° C. for 1 hour, followed by phenol-chloroform extraction of RNA. The digested RNA was separated on 12% TBE-Urea PAGE gel, and the target band along with the adjacent upper and bottom gels were sliced by a 2 mm gel cutter. The gel slices were crushed and the ^3H labeled rRNA fragment was extracted in water by vigorously shaking at 70° C. for 30 min, or by overnight extraction in elution buffer (0.3M sodium acetate, 0.25% SDS, 1 mM EDTA). The slurry was removed by centrifugation and the eluted ^3H labeled rRNA in the supernatant was quantified. The stoichiometry of AzAt photoincorporation was calculated based on a gel recovery yield of 20±2%, determined using an authentic sample of [^3H]-Gln-tRNA^Gln.
Testing the functional pertinence of AzAt photolabeling of 18S A1195, 28S-A3093, 28S-A2672, and 28S-2669. An RNAse H fragment assay was employed to determine whether the potential functionally significant sites identified by LASER-seq correspond to ataluren binding sites relevant for termination activity. In this assay, oligonucleotide hybridization, RNase H digestion and polyacrylamide gel electrophoresis (PAGE) were used to determine the stoichiometry of [^3H]-AzAt photoincorporation into the three rRNA fragments that together include the four nucleotides of interest: Fragment I, 18S-A1195; Fragment II, 26S-A3093; Fragment III, 26S-A2669 and 26S-A2672 (Table 5). The separate addition of four potential competitors of AzAt binding (eRF1 alone, the stably bound eRF1.eRF3.GDPNP complex, ataluren, and the ataluren-like TRID GJ072) was used to test how these affected such photoincorporation. These experiments, the results of which are summarized in Table 5, were performed at two different AzAt concentrations. eRF1 and eRF1.eRF3.GDPNP effects were measured using 300 μM AzAt, paralleling the LASER-Seq PAL experiments.

[3] = tested on: Small RNAs within Stop-POST5 complex; assay: AzAt photoincorporation into small RNAs (urea-PAGE, RNAse H fragments); assay type: binding, shrimp (Artemia salina)
Method: FIG. 11 illustrates 8% Urea-PAGE resolution of small RNAs.
as §1
Stop-POST5 and 80S-IRES complexes. 1 μM solutions of either Stop-POST5 or 80S-S.IRES, determined by A260, were photolabeled by [^3H]-AzAt. The sample was then either directly purified by ultracentrifugation through a sucrose cushion to determine the photoincorporation stoichiometry in the complex, or subjected to phenol/chloroform extraction to determine the photoincorporation stoichiometry in the total RNA. To determine the photoincorporation background arising from incomplete removal of noncovalently bound photolyzed AzAt, AzAt was prephotolysed for 5 min before adding to the complex, followed by the 20 min incubation in dark at 37° C. and subsequent sucrose cushion purification or RNA extraction as described above.
as §3
Small RNAs. AzAt photoincorporation into the 4 small RNAs (CrPV-IRES, 5.8S rRNA, 5S rRNA, and tRNA) contained within POST5 was examined by one-dimensional (1D) urea-PAGE analysis, by RNA-Seq, and by RNAse H fragment assay (FIG. 11).

[4] = Stop-POST5, PAL, 30 μM AzAt, alone or plus Ataluren 500 μM / GJ072 150 μM named as label
[5] = PAL, 30 μM AzAt, alone (AzAt) or plus competing ligand named as label (Ataluren 500 μM, GJ072 150 μM)
[6] = PAL, 30 μM AzAt, alone or plus competing ligand named as label
[7] = Stop-POST5, PAL, 300 μM AzAt, alone or plus competing ligand named as label
[8] = Stop-POST5, PRE, 300 μM prephotolysed AzAt
[9] = PAL, 300 μM AzAt, alone or plus competing ligand named as label

T1 sequence (P05453 166-685): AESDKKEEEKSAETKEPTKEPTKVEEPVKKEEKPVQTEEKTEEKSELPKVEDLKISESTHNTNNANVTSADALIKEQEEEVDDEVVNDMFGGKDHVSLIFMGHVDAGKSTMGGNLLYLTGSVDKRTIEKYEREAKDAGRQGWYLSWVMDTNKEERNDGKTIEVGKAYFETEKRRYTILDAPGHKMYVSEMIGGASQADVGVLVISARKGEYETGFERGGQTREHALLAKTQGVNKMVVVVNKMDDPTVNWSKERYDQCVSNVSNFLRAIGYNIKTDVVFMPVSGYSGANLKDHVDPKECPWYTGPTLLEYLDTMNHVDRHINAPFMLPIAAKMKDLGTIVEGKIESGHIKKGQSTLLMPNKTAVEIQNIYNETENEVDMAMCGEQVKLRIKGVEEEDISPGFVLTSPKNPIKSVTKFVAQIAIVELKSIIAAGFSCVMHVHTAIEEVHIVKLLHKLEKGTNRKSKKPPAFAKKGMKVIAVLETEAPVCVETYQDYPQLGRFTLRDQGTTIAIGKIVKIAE
T1 sequence (P12385 whole entry): as the sequence (P12385 whole entry) above

O=C(O)c1cccc(-c2noc(-c3ccccc3F)n2)c1 [Ataluren]
inhibition of AzAt photoincorporation into eRF1 within the ternary complex ([1]; compared with isolated eRF1, FIG. 2E): less marked | effect on AzAt photoincorporation into isolated eRF1 (eRF1; FIG. 2E): substantially inhibited | effect on AzAt photoincorporation into Fragment IV (26S A1437/A1438) [2]: neither ataluren nor GJ072 reduce labeling at all | effect on AzAt photoincorporation into Fragment I (18S-A1195) ([2]; Stop-POST5): strongly inhibits | effect on AzAt photoincorporation into Fragment II (A3093) ([2]; Stop-POST5): stimulated | effect on AzAt photoincorporation into Fragment III (A2669/A2672) ([2]; Stop-POST5): only weakly inhibited | Photoincorporation yields into 18S A1195/ I: 18S 1151-1206 [2, 4]: 0.06 ± 0.01 mole % | Photoincorporation yields into 26S-A2669:A2672/ III: 26S 2638-2702 [2, 4]: 0.10 ± 0.04 mole % | Photoincorporation yields into 26S-A3093/ II: 26S 3069-3113 [2, 4]: 0.06 ± 0.01 mole % | Photoincorporation yields into RNAse H Fragment IV: 26S 1413-1476 [2, 4]: 0.034 ± 0.006% | Photoincorporation yields into CrPV-IRES nts1-155 [3, 5]: 0.40 ± 0.13 mole % | Photoincorporation yields into 5S rRNA [3, 6]: 0.15 ± 0.01 mole % | Photoincorporation yields into 5.8S rRNA [3, 6]: 0.19 ± 0.01 mole % | Photoincorporation yields into CrPV-IRES All [3, 6]: 0.76 ± 0.05 mole % | Photoincorporation yields into CrPV-IRES nts156-221 [3, 6]: 0.17 ± 0.03 mole % | Photoincorporation yields into CrPV-IRES nts222-278 [3, 6]: 0.07 ± 0.06 mole % | Photoincorporation yields into tRNA^Gln [3, 6]: 0.22 ± 0.03 mole % | effect on AzAt labeling of CrPV-IRES fragments 1-155 and 156-221 ([3]; RNAse H fragment assay): no clearly significant changes | effect on AzAt labeling of small RNAs ([3]; none clearly significant): generally small reductions

[N-]=[N+]=Nc1ccc(-c2nc(-c3cccc(C(=O)O)c3)no2)cc1 [AzAt]
Kd ([1]; two-site model, read-out: Kd, tight site photoincorporation into eRF1 within ternary complex): 90 ± 20 µM | Kd (eRF1; hyperbolic saturation curve, read-out: Kd, photoincorporation into isolated eRF1): 110 ± 20 µM | saturating value of photo-incorporation into Fragment II ([2]; FIG. 7B): 0.8% | saturating value of photo-incorporation into Fragment III ([2]; FIG. 7B): 0.8% | Photoincorporation yields into 18S A1195/ I: 18S 1151-1206 [2, 4]: 0.26 ± 0.03 mole % | Photoincorporation yields into 26S-A2669:A2672/ III: 26S 2638-2702 [2, 4]: 0.13 ± 0.04 mole % | Photoincorporation yields into 26S-A3093/ II: 26S 3069-3113 [2, 4]: 0.03 ± 0.01 mole % | Photoincorporation yields into RNAse H Fragment IV: 26S 1413-1476 [2, 4]: 0.020 ± 0.003% | Photoincorporation yields into 26S-A2669:A2672/ III: 26S 2638-2702 [2, 7]: 1.07 ± 0.14 mole % | Photoincorporation yields into 26S-A3093/ II: 26S 3069-3113 [2, 7]: 0.40 ± 0.01 mole % | Photoincorporation yields into RNAse H Fragment IV: 26S 1413-1476 ([2]; Stop-POST5, PAL, 300 μM AzAt, alone or plus competing ligand named as label (eRF1 2 μM, eRF3 4 μM, GDPNP 1 mM)): 0.29 ± 0.03% | Photoincorporation yields into 18S A1195/ I: 18S 1151-1206 ([2]; Stop-POST5, PAL, 300 μM AzAt, alone or plus competing ligand named as label (eRF1 2 μM, eRF3 4 μM, GDPNP)): 1.55 ± 0.20 mole % | Photoincorporation yields into 18S A1195/ I: 18S 1151-1206 [2, 8]: 0.012 ± 0.003 mole % | Photoincorporation yields into 26S-A2669:A2672/ III: 26S 2638-2702 [2, 8]: 0.03 ± 0.02 mole % | Photoincorporation yields into 26S-A3093/ II: 26S 3069-3113 [2, 8]: 0.04 ± 0.01 mole % | KA, photoincorporation into Fragments II and III (PTC) ([2]; fit to eq (1)): 200 ± 40 µM | Kd ([2]; simple hyperbolic binding isotherm, FIG. 7A, read-out: apparent KD, photoincorporation into Fragment I (18S-A1195)): 240 ± 10 µM | Photoincorporation yields into CrPV-IRES nts1-155 [3, 5]: 0.56 ± 0.04 mole % | Photoincorporation yields into 5S rRNA [3, 6]: 0.19 ± 0.01 mole % | Photoincorporation yields into 5.8S rRNA [3, 6]: 0.25 ± 0.01 mole % | Photoincorporation yields into CrPV-IRES All [3, 6]: 0.85 ± 0.14 mole % | Photoincorporation yields into CrPV-IRES nts156-221 [3, 6]: 0.23 ± 0.08 mole % | Photoincorporation yields into CrPV-IRES nts222-278 [3, 6]: 0.06 ± 0.04 mole % | Photoincorporation yields into tRNA^Gln [3, 6]: 0.30 ± 0.04 mole % | Photoincorporation yields into CrPV-IRES nts1-155 ([3]; PAL, 300 μM AzAt, alone (AzAt) or plus competing ligand named as label (eRF1 2 μM, eRF3 4 μM, GDPNP 1 mM)): 7.6 ± 1.5 mole % | Photoincorporation yields into 5S rRNA [3, 9]: 1.62 ± 0.11 mole % | Photoincorporation yields into 5.8S rRNA [3, 9]: 0.89 ± 0.10 mole % | Photoincorporation yields into CrPV-IRES All [3, 9]: 7.3 ± 0.5 mole % | Photoincorporation yields into CrPV-IRES nts156-221 [3, 9]: 3.2 ± 0.8 mole % | Photoincorporation yields into CrPV-IRES nts222-278 [3, 9]: 0.02 ± 0.03 mole % | Photoincorporation yields into tRNA^Gln [3, 9]: 2.3 ± 0.2 mole % | Photoincorporation yields into 5S rRNA ([3]; PRE, 300 μM prephotolysed AzAt): 0.02 ± 0.01 mole % | Photoincorporation yields into 5.8S rRNA ([3]; PRE, 300 μM prephotolysed AzAt): 0.02 ± 0.01 mole % | Photoincorporation yields into CrPV-IRES All ([3]; PRE, 300 μM prephotolysed AzAt): 0.02 ± 0.01 mole % | Photoincorporation yields into CrPV-IRES nts1-155 ([3]; PRE, 300 μM prephotolysed AzAt): 0.02 ± 0.01 mole % | Photoincorporation yields into CrPV-IRES nts156-221 ([3]; PRE, 300 μM prephotolysed AzAt): 0.05 ± 0.04 mole % | Photoincorporation yields into CrPV-IRES nts222-278 ([3]; PRE, 300 μM prephotolysed AzAt): 0.03 ± 0.01 mole % | Photoincorporation yields into tRNA^Gln ([3]; PRE, 300 μM prephotolysed AzAt): 0.41 ± 0.09 mole %
